Values of other authors as cited in US20210228489A1, “COMPOSITIONS FOR TREATING CYSTIC FIBROSIS” (Vertex Pharmaceuticals Incorporated, priority 2017, published 2021).

Test system: CFTR
Conditions: CFTR modulator; disclosed in PCT Publication No. WO 2016/057572

In the case of `CC(C)COc1cc(F)cc(-c2ccc(C(=O)NS(=O)(=O)c3cccc(N)n3)c(N3C[C@@H](C)CC3(C)C)n2)c1` [Compound I, N-[(6-amino-2-pyridyl)sulfonyl]-6-(3-fluoro-5-isobutoxy-phenyl)-2-[(4S)-2,2,4-trimethylpyrrolidin-1-yl]pyridine-3-carboxamide], the EC30 is listed as under 3 µM.
